Data from patent US7306804B2 (priority 1998, dated 2007).
“Also recorded” adds a separate entry of the source. Where two headings read alike, the source gives them in different places.

How the values were obtained:
[1] = system: peptide-pulsed autologous EBV-transformed B cells (B-LCL); assay type: cell-based, human
[2] = system: HIV envelope protein gp160; details: cited from earlier work; for T-cell proliferative response to immunizing peptide and HIV Env protein gp160 / antibodies recognizing recombinant gp160: immunized mice; for T-cell proliferation responses: two F1 hybrid mouse strains (B6C3 F1 and A.SW×Balb/c F1)
PBMCs = details: cited from earlier work
[3] = system: PBMCs from control and HIV-1 infected chimpanzees; assay type: cell-based, chimpanzee
[4] = system: anti-peptide antibodies in serum; assay type: binding, chimpanzee; parameters: key: +, Positive (Titer > 1:100); −, Negative (Titer < 1:100)
[5] = system: anti-peptide antibodies in serum; assay type: binding, human; parameters: key to Anti-peptide antibody response: +, Positive (titer above control); −, Negative (titer below control)
[6] = system: PBMCs from normal and HIV-positive individuals; assay type: cell-based, human

Sequence: YLRDQQLLGIWGC [Peptide 61]
- % Specific lysis at various E:T ratios 12.5:1 [1]: 4.0%
- % Specific lysis at various E:T ratios 25:1 [1]: 4.0%
- % Specific lysis at various E:T ratios 50:1 [1]: 14.5%
- % Specific lysis at various E:T ratios 100:1 [1]: 15.0%
- CTL activity against peptide-pulsed autologous B-LCLs [1]: significant CTL activity
- specific lysis of peptide-pulsed target cells [1]: also observed
- T-cell proliferative response to immunizing peptide and HIV Env protein gp160 [2]: induced a T-cell response against both the immunizing peptide and the HIV Env protein
- antibodies recognizing recombinant gp160 [2]: did not produce antibodies that could recognize recombinant gp160
- T-cell proliferation responses [2]: relatively good T-cell proliferation responses
- proliferative response of PBMCs (PBMCs; monkey, in vivo): PMBCs from two of the monkeys showed good proliferative responses

Sequence: LWDQSLKPCVKLT [Peptide 111]
- T-cell proliferation responses [2]: relatively good T-cell proliferation responses
- proliferative response of PBMCs (PBMCs; three monkeys immunized with peptide cocktail): good response

Sequence: FLGFLGAAGSTMGAASLTLTVQARQ [Peptide 63]
- % Specific lysis at various E:T ratios 12.5:1 [1]: 0%
- % Specific lysis at various E:T ratios 25:1 [1]: 7.9%
- % Specific lysis at various E:T ratios 50:1 [1]: 8.8%
- % Specific lysis at various E:T ratios 100:1 [1]: 17.6%
- CTL activity against peptide-pulsed autologous B-LCLs [1]: significant CTL activity
- specific lysis of peptide-pulsed target cells [1]: also observed
- T-cell proliferative response to immunizing peptide and HIV Env protein gp160 [2]: induced a T-cell response against both the immunizing peptide and the HIV Env protein; also recorded: induced proliferative responses to both the immunizing peptide
- antibodies recognizing recombinant gp160 [2]: did not produce antibodies that could recognize recombinant gp160
- T-cell proliferation responses [2]: relatively good T-cell proliferation responses
- proliferative response of PBMCs (PBMCs; monkey, in vivo): good response

Sequence: GTGPCTNVSTVQC [Peptide 116]
- T-cell proliferation responses [2]: relatively good T-cell proliferation responses
- proliferative response of PBMCs (PBMCs; monkey, in vivo): weak responses

Sequence: YLRDQQLLGIWG [Peptide 120]
- T-cell proliferative response ([3]; chimpanzee 40, control normal): − (−, Negative (SI < 2.0))
- T-cell proliferative response ([3]; chimpanzee 62, HIV-infected): + (+, Positive (Stimulation Index [SI] > 2.0))
- T-cell proliferative response ([3]; chimpanzee 69, HIV-infected): + (+, Positive (Stimulation Index [SI] > 2.0))
- T-cell proliferative response ([3]; chimpanzee 73, control normal): − (−, Negative (SI < 2.0))
- T-cell proliferative response ([3]; chimpanzee 80, HIV-infected): + (+, Positive (Stimulation Index [SI] > 2.0))
- T-cell proliferative response ([3]; chimpanzee 99, HIV-infected): − (−, Negative (SI < 2.0))
- T-cell proliferative response ([3]; chimpanzee 100, HIV-infected): + (+, Positive (Stimulation Index [SI] > 2.0))
- T-cell proliferative response ([3]; chimpanzee 139, HIV-infected): − (−, Negative (SI < 2.0))
- T-cell proliferative response ([3]; chimpanzee 175, HIV-infected): − (−, Negative (SI < 2.0))
- T-cell proliferative response ([3]; chimpanzee 247, HIV-infected): − (−, Negative (SI < 2.0))
- T-cell proliferative response ([3]; chimpanzee 310, HIV-infected): − (−, Negative (SI < 2.0))
- Anti-peptide antibody response [4]: −
- Anti-peptide antibody response [5]: − and +
- number of HIV+ individuals with positive antibody titers (<1:1280) [5]: two
- number of HIV+ individuals with positive proliferative responses ([6]; 17 HIV+ individuals tested): five
- T-cell proliferative response ([6]; HIV-positive patient MSf): − (−, Negative (SI < 2.0))
- T-cell proliferative response ([6]; HIV-positive patient MSm): − (−, Negative (SI < 2.0))
- T-cell proliferative response ([6]; HIV-positive patient eight): − (−, Negative (SI < 2.0))
- T-cell proliferative response ([6]; HIV-positive patient eleven): + (+, Positive (Stimulation Index [SI] > 2.0))
- T-cell proliferative response ([6]; HIV-positive patient fifteen): + (+, Positive (Stimulation Index [SI] > 2.0))
- T-cell proliferative response ([6]; HIV-positive patient five): − (−, Negative (SI < 2.0))
- T-cell proliferative response ([6]; HIV-positive patient four): − (−, Negative (SI < 2.0))
- T-cell proliferative response ([6]; HIV-positive patient fourteen): − (−, Negative (SI < 2.0))
- T-cell proliferative response ([6]; HIV-positive patient nine): + (+, Positive (Stimulation Index [SI] > 2.0))
- T-cell proliferative response ([6]; HIV-positive patient one): − (−, Negative (SI < 2.0))
- T-cell proliferative response ([6]; HIV-positive patient seven): + (+, Positive (Stimulation Index [SI] > 2.0))
- T-cell proliferative response ([6]; HIV-positive patient six): + (+, Positive (Stimulation Index [SI] > 2.0))
- T-cell proliferative response ([6]; HIV-positive patient ten): − (−, Negative (SI < 2.0))
- T-cell proliferative response ([6]; HIV-positive patient thirteen): − (−, Negative (SI < 2.0))
- T-cell proliferative response ([6]; HIV-positive patient three): − (−, Negative (SI < 2.0))
- T-cell proliferative response ([6]; HIV-positive patient twelve): − (−, Negative (SI < 2.0))
- T-cell proliferative response ([6]; HIV-positive patient two): − (−, Negative (SI < 2.0))
- T-cell proliferative response ([6]; Normal-1 (HIV-seronegative)): − (−, Negative (SI < 2.0))
- T-cell proliferative response ([6]; Normal-2 (HIV-seronegative)): − (−, Negative (SI < 2.0))
